Experimental data taken from article PMC10648852, “Molecular drivers of resistance to sulbactam-durlobactam in contemporary clinical isolates of Acinetobacter baumannii” (Antimicrobial Agents and Chemotherapy, 2023).
Where “and” joins values, the source holds several entries; their conditions need not be identical. Equal entries are not always repeated. Where two headings read alike, the source gives them in different places.

Assays:
[1] = test system: A. baumannii PBP3 H370Y; test: Acylation rate constant (kinact/Ki), fluorescence anisotropy competition with BOCILLIN; conditions: for k inact/K i: average ± SD
[2] = test system: A. baumannii PBP3 S395F; test: as above; conditions: variant data from McLeod et al. (2018)
[3] = test system: A. baumannii wild-type PBP3; test: as above; conditions: Wildtype PBP3; for k inact/K i: average ± SD
[4] = test system: isogenic A. baylyi ADP1 panel encoding wildtype or mutant PBP3; test: Broth microdilution MIC, isogenic A. baylyi panel (PBP3 variants with or without overexpressed β-lactamases); format: cell-based; conditions: for increase in MIC values in the presence of β-lactamase: wildtype PBP3 strain
Protocol: To understand the effect of PBP3 variants on whole cell activity in the absence of other resistance determinants, the MIC values of sulbactam, SUL-DUR and comparator β-lactams were measured against an isogenic A. baylyi panel engineered to contain individual strains in which the endogenous PBP3 was replaced with the variant of interest.
Each of the A. baylyi panel members were then transformed with plasmids that constitutively expressed five distinct, representative β-lactamases commonly found in Acinetobacter clinical isolates (TEM-1, ADC-30, OXA-23, OXA-24 or OXA-66) and evaluated for changes in antibiotic susceptibility. […] . […] .
The isogenic A. baylyi panel used for chromosomal expression of various PBP3 mutants with or without constitutive expression of various β-lactamases were constructed as part of this study. The A. baylyi ADP1 PBP3 ORF was cloned into pUC19 with a gentamicin cassette inserted downstream of the PBP3 ORF for selection purposes. Additionally, 500 bp of flanking homology to the ADP1 genome were inserted upstream of the PBP3 ORF and downstream of the gentamicin cassette. […] Linear DNA consisting of the 500 bp upstream-PBP3-Gent-500 bp downstream fragment was cloned out of the pUC19 plasmid by PCR and used for transformation of the ADP1 strain. The strain was grown at 30°C overnight in LB medium shaking at 250 rpm. Seventy microliters of the overnight ADP1 culture were combined with 1 mL of fresh LB and 200 ng of linear DNA fragment and incubated for 5 h at 30°C and shaking at 200 rpm. Various dilutions of each culture were plated on LB agar supplemented with 10 µg/mL of gentamicin to select for transformants with successful chromosomal integrations. Integrants were verified by Sanger sequencing using purified genomic DNA.
For the constitutive expression of various β-lactamases, ORFs of bla TEM-1, bla ADC-30, bla OXA-23, bla OXA-24, and bla OXA-66 were cloned by PCR from various clinical strains that encode these genes and inserted into the pWH1266 plasmid modified to encode a kanamycin cassette for selection. These plasmids along with an empty vector were used to transform each of the A. baylyi ADP1 strains engineered above that encode wild-type PBP3 or variants. Transformations were carried out as done above with selection on LB agar supplemented with 20 µg/mL of kanamycin.
(§1) Antimicrobial susceptibility testing was performed using broth microdilution following standardized methods established by the Clinical Laboratory Standards Institute (CLSI) ([35], [36]). Quality control testing was performed as specified by CLSI using A. baumannii NCTC 13304 ([35]). MIC values were interpreted using CLSI breakpoints for all antimicrobial agents except those for which CLSI breakpoints are not available ([35]). SUL-DUR was tested as twofold dilutions of sulbactam in combination with a fixed concentration of 4 µg/mL durlobactam ([35]).

[5] = test system: A. baumannii PBP3 N392T; test: Acylation rate constant (kinact/Ki), fluorescence anisotropy competition with BOCILLIN; conditions: for k inact/K i: average ± SD
[6] = test system: A. baumannii PBP3 S390T; design: method as in McLeod et al. (2018); conditions: average ± SD, ref McLeod et al. (2018); cited from earlier work
[7] = test system: A. baumannii PBP3 N377Y; test: Acylation rate constant (kinact/Ki), fluorescence anisotropy competition with BOCILLIN; conditions: for k inact/K i: average ± SD
[8] = test system: A. baumannii PBP3 S395F; design: method as in McLeod et al. (2018); conditions: average ± SD, ref McLeod et al. (2018); cited from earlier work
[9] = test system: A. baumannii PBP3 Q488K; test: Acylation rate constant (kinact/Ki), fluorescence anisotropy competition with BOCILLIN; conditions: for k inact/K i: average ± SD
[10] = test system: A. baumannii KAB1544 and efflux overexpression mutants; test: Broth microdilution MIC, isogenic A. baumannii overexpression efflux mutants; format: cell-based; conditions: for MIC: Acinetobacter baumannii
Protocol: To further assess the role of efflux in SUL-DUR activity against Acinetobacter spp., two panels of A. baumannii isogenic strains were tested. The first consisted of 7 members of an A. baumannii transposon library ([28]) with single gene disruptions in the adeABC, adeIJK, or adeT loci as compared to the parent strain, AB5075. […] This panel of strains consists of four different point mutants in AdeR and five different point mutants in AdeS, which result in the upregulation of AdeABC expression. In addition, this panel contains chromosomal deletions of adeL and adeN, which result in overexpression of AdeFGH and AdeIJK, respectively ([29]).
In contrast, sulbactam, SUL-DUR, and imipenem MIC values were unaffected by these mutants (Table 4).
The AB5075 parent strain as well as transposon interrupted AdeABC, AdeIJK, and AdeT were purchased from the Manoil laboratory at the University of Washington from their arrayed transposon mutant collection ([28]). The KAB1544 parent as well as efflux pump regulator mutants and deletions were constructed as previously described ([29]).
as §1

[11] = test system: A. baumannii PBP3 S390T; test: Acylation rate constant (kinact/Ki), fluorescence anisotropy competition with BOCILLIN; conditions: variant data from McLeod et al. (2018)
[12] = Acinetobacter baylyi, A. baylyi, PBP3 H370Y, overexpressed ADC-30
[13] = Acinetobacter baylyi, A. baylyi, PBP3 H370Y, overexpressed OXA-23
[14] = Acinetobacter baylyi, A. baylyi, PBP3 H370Y, overexpressed OXA-24
[15] = Acinetobacter baylyi, A. baylyi, PBP3 H370Y, overexpressed OXA-66
[16] = Acinetobacter baylyi, A. baylyi, PBP3 H370Y, overexpressed TEM-1
[17] = Acinetobacter baylyi, A. baylyi, PBP3 H370Y, β-lactamase None (empty vector)
[18] = Acinetobacter baylyi, A. baylyi, PBP3 Wildtype, overexpressed ADC-30, read-out: MIC
[19] = Acinetobacter baylyi, A. baylyi, PBP3 Wildtype, overexpressed OXA-23, read-out: MIC
[20] = Acinetobacter baylyi, A. baylyi, PBP3 Wildtype, overexpressed OXA-24, read-out: MIC
[21] = Acinetobacter baylyi, A. baylyi, PBP3 Wildtype, overexpressed OXA-66, read-out: MIC
[22] = Acinetobacter baylyi, A. baylyi, PBP3 Wildtype, overexpressed TEM-1, read-out: MIC
[23] = Acinetobacter baylyi, A. baylyi, PBP3 Wildtype, β-lactamase None (empty vector), read-out: MIC

SMILES: C[C@@H](O)[C@H]1C(=O)N2C(C(=O)O)=C(S[C@@H]3CN[C@H](C(=O)N(C)C)C3)[C@H](C)[C@H]12 [meropenem]
- % WT [1]: 120%
- k inact/K i [1]: 6,000 ± 10 ([2]) M^-1s^-1
- % WT [2]: 30%
- % WT [3]: 100%
- k inact/K i [3]: 5,000 ± 1,000 ([10]) M^-1s^-1
- MIC [4, 12]: 0.06 µg/mL
- MIC [4, 13]: 8 µg/mL
- MIC [4, 14]: > 8 µg/mL
- MIC [4, 15]: 0.5 µg/mL
- MIC [4, 16]: 0.06 µg/mL
- MIC [4, 17]: 0.06 µg/mL
- MIC [4, 18]: 0.13 µg/mL
- MIC [4, 19]: 8 µg/mL
- MIC [4, 20]: > 8 µg/mL
- MIC [4, 21]: 1 µg/mL
- MIC [4, 22]: 0.13 µg/mL
- MIC [4, 23]: 0.06 µg/mL
- increase in MIC values in the presence of β-lactamase ([4]; OXA-23, OXA-24 and OXA-66): ≥ 4 fold
- % WT [5]: 164%
- k inact/K i [5]: 8,200 ± 200 ([2]) M^-1s^-1
- k inact/K i [6]: 16,000 ± 6,000 ([3]) M^-1s^-1
- % WT [7]: 74%
- k inact/K i [7]: 3,700 ± 300 ([2]) M^-1s^-1
- k inact/K i [8]: 1,500 ± 200 ([3]) M^-1s^-1
- % WT [9]: 78%
- k inact/K i [9]: 3,900 ± 200 ([2]) M^-1s^-1

SMILES: CC1(C)[C@H](C(=O)O)N2C(=O)C[C@H]2S1(=O)=O [sulbactam]
- % WT [1]: ~ 120% and 126%
- k inact/K i [1]: 19 ± 2 ([2]) M^-1s^-1
- % WT ([1]; listed as Sulbactam): 126.7%
- % WT [2]: 4.2%
- % WT [3]: 100%
- k inact/K i [3]: 15 ± 3 ([10]) M^-1s^-1
- MIC ([10]; AdeR A91V, AdeABC overexpressed, read-out: MIC): 1 µg/mL
- MIC ([10]; AdeR D20N, AdeABC overexpressed, read-out: MIC): 1 µg/mL
- MIC ([10]; AdeR E219A, AdeABC overexpressed, read-out: MIC): 2 µg/mL
- MIC ([10]; AdeR P116L, AdeABC overexpressed, read-out: MIC): 1 µg/mL
- MIC ([10]; AdeS A94V, AdeABC overexpressed, read-out: MIC): 1 µg/mL
- MIC ([10]; AdeS G30D, AdeABC overexpressed, read-out: MIC): 1 µg/mL
- MIC ([10]; AdeS G103D, AdeABC overexpressed, read-out: MIC): 2 µg/mL
- MIC ([10]; AdeS R152K, AdeABC overexpressed, read-out: MIC): 1 µg/mL
- MIC ([10]; AdeS T153M, AdeABC overexpressed, read-out: MIC): 1 µg/mL
- MIC ([10]; Parent (KAB1544), no efflux pump overexpressed, read-out: MIC): 2 µg/mL
- MIC ([10]; ΔadeL, AdeFGH overexpressed): 1 µg/mL
- MIC ([10]; ΔadeN, AdeIJK overexpressed): 2 µg/mL
- change in MIC values relative to the parent strain ([10]; most of the AdeR and AdeS mutants (AdeABC overexpression), KAB1544): unaffected
- MIC [4, 12]: 2 µg/mL
- MIC [4, 13]: > 64 µg/mL
- MIC [4, 14]: > 64 µg/mL
- MIC [4, 15]: 4 µg/mL
- MIC [4, 16]: 4 µg/mL
- MIC [4, 17]: 8 µg/mL
- MIC [4, 18]: 2 µg/mL
- MIC [4, 19]: > 64 µg/mL
- MIC [4, 20]: 16 µg/mL
- MIC [4, 21]: 8 µg/mL
- MIC [4, 22]: 16 µg/mL
- MIC [4, 23]: 4 µg/mL
- increase in MIC values in the presence of β-lactamase ([4]; TEM-1, OXA-23 and OXA-24): ≥ 4 fold
- MIC ([4]; {}): >64 µg/mL
- % WT [5]: ~ 120%
- k inact/K i [5]: 18 ± 1 ([2]) M^-1s^-1
- % WT ([5]; listed as Sulbactam): 120%
- k inact/K i [6]: 0.03 ± 0.02 ([3]) M^-1s^-1
- % WT [7]: 60%–73%
- k inact/K i [7]: 11 ± 2 ([2]) M^-1s^-1
- % WT ([7]; listed as Sulbactam): 73.3%
- k inact/K i [8]: 0.63 ± 0.06 ([3]) M^-1s^-1
- % WT [9]: 60%–73%
- k inact/K i [9]: 9.9 ± 0.3 ([2]) M^-1s^-1
- % WT ([9]; listed as Sulbactam): 66%
- % WT [11]: 0.2%
